# Data taken from patent US8835472B2, “Compounds, pharmaceutical compositions and uses thereof” (Boehringer Ingelheim International GmbH, priority 2010, dated 2014).
# Target: human ACC2 (Homo sapiens (Human), UniProt O00763)
# Test: ACC2 assay, spectrophotometric 384 well assay (NADH-linked, coupled lactate dehydrogenase/pyruvate kinase reaction)
# Type: biochemical
# Details: hACC2 construct lacking the 128 N-terminal amino acids; 25° C., 340 nm over 15 minutes
# Summary of the method: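 Kinetic NADH-linked assay (pyruvate kinase/lactate dehydrogenase coupling) with baculovirus-expressed hACC2 missing its first 128 amino acids. Started with 500 μM ATP and 200 μM each NADH and acetyl-CoA; slope followed 15 min at 25 °C, pH 7.5. No-acetyl-CoA wells define 0%; IC50 by nonlinear regression.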
# Chain of human ACC2 (O00763 129-2458): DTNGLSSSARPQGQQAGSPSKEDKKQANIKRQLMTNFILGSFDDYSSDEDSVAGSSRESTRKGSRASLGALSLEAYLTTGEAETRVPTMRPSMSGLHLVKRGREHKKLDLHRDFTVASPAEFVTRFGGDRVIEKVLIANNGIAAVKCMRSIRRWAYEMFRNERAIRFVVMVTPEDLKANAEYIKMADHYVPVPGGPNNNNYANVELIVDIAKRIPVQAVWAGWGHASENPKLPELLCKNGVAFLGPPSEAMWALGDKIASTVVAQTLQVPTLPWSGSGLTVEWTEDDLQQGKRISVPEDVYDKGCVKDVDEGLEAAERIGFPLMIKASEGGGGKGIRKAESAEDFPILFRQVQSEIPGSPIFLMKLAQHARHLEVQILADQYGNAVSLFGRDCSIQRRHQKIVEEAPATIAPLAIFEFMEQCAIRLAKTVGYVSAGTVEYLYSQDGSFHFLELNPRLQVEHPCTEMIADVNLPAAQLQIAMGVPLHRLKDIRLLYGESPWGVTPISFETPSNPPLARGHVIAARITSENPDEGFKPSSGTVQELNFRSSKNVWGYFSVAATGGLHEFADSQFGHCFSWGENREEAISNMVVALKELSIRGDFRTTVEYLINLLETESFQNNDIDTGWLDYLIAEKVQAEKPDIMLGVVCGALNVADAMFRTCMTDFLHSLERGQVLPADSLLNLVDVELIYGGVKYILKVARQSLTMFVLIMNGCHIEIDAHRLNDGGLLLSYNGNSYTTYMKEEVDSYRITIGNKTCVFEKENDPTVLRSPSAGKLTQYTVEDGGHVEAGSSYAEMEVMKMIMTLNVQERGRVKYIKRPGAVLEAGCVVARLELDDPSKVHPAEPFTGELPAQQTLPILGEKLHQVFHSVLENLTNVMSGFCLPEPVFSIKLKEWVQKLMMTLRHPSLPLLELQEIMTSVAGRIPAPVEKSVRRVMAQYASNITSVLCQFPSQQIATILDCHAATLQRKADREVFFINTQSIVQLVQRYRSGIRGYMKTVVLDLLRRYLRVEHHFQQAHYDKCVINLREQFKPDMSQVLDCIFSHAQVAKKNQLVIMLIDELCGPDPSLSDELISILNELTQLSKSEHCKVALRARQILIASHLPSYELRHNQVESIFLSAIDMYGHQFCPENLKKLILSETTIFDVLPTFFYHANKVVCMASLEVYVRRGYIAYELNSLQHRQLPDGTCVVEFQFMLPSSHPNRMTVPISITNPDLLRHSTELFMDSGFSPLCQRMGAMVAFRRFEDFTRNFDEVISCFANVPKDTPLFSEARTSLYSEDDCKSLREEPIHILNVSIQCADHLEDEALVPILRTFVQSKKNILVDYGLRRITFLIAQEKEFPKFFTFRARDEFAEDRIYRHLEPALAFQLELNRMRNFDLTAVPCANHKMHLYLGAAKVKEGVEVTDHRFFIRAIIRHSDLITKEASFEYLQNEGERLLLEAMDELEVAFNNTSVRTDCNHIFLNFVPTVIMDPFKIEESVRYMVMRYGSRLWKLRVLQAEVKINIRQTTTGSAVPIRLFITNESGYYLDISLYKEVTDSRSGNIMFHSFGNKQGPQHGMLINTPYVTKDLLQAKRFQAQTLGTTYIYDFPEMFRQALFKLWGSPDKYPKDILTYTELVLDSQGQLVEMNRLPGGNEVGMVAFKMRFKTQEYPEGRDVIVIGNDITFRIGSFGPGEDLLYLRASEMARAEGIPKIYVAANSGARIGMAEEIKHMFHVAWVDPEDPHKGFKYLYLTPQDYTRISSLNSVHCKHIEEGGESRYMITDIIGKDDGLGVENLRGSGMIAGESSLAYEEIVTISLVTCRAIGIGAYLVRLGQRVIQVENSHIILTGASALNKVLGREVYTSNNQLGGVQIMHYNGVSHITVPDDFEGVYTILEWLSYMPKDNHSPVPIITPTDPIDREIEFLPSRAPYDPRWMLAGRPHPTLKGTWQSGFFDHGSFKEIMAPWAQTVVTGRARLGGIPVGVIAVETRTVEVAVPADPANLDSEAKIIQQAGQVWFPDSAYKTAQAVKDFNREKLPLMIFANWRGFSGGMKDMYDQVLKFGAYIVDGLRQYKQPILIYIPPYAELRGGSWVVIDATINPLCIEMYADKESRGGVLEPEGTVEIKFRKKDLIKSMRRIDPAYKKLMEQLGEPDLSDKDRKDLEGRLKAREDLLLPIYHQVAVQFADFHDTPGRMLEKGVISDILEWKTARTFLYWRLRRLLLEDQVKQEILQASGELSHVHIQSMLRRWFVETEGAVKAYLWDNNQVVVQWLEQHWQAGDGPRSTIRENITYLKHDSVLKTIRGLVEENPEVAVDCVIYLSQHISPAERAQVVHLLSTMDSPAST
row,IC50 [nM],SMILES
1,320,CC(Cc1ccc(C#Cc2cnc(NC3CCC3)nc2)cc1)NC(=O)C1CC1 (stereo not shown) [Example 13.44]
2,200,CC(C)Nc1ncc(C#Cc2ccc(CC(C)NC(=O)N(C)C)cc2)cn1 (stereo not shown) [Example 13.24]
3,630,COCCCOc1cccc(C#Cc2ccc(CC(C)NC(C)=O)cc2)c1 (stereo not shown) [Example 9.13]
4,2100,COCCOc1ncc(C#Cc2ccc(CC(C)NC(C)=O)cc2)cn1 (stereo not shown) [Example 12.9]
5,2100,CC(Cc1ccc(C#Cc2ccc(OC(F)F)cc2)cc1)NC(=O)C1CC1 (stereo not shown) [Example 2.59]
6,2400,CCNc1ncc(C#Cc2ccc(CC(C)NC(=O)OC)cc2)cn1 (stereo not shown) [Example 13.41]
7,4300,CC(=O)NC(C)Cc1ccc(C#Cc2ccnc(OC3CCCC3)n2)cc1 (stereo not shown) [Example 12.2]
8,8400,CC(=O)NC(C)Cc1ccc(C#Cc2cccc(C(=O)N3CCN(C(C)C)CC3)c2)cc1 (stereo not shown) [Example 1.9]
9,510,CCOc1ccc(C#Cc2ccc(CC(C)NC(=O)C3(C)COC3)cc2)cc1 (stereo not shown) [Example 4.51]
10,22100,CNC(=O)c1ccc(C#Cc2ccc(CC(C)NC(C)=O)cc2)cc1 (stereo not shown) [Example 8.44]
11,970,CCOc1ccc(C#Cc2ccc(CC(C)NC(=O)COC)cc2)cc1 (stereo not shown) [Example 4.6]
12,610,CC(=O)NC(C)Cc1ccc(C#Cc2ccc(OCC3CCCCO3)cc2)cc1 (stereo not shown) [Example 9.17]
13,170,CC(Cc1ccc(C#Cc2cnc(OC3CCC3)nc2)cc1)NC(=O)c1cncs1 (stereo not shown) [34.1]
14,1600,CC(=O)NC(C)Cc1ccc(C#Cc2ccnc(OCC3CC3)n2)cc1 (stereo not shown) [Example 12.5]
15,450,C[C@H](NC(=O)C1CC1)c1ccc(C#Cc2cnc(OC3CCC3)nc2)cc1 [Example 12.65]
16,280,CCOCCOc1ccc(C#Cc2ccc(CC(C)NC(C)=O)cc2)cc1 (stereo not shown) [Example 9.19]
17,2700,CCOc1ccc(C#Cc2ccc(C(C)NC(=O)c3ccccn3)cc2)cc1 (stereo not shown) [Example 4.47]
18,11800,CCCOc1ccc(C#Cc2ccc(C(C)(C)NC(C)=O)cc2)c(OC)c1 [Example 2.40]
19,8100,CC(=O)NC(C)Cc1ccc(C#Cc2ccnc(N3CC(F)(F)C3)n2)cc1 (stereo not shown) [Example 11.22]
20,500,COC(=O)NC(C)Cc1ccc(C#Cc2cnc(NC3CCC3)nc2)cc1 (stereo not shown) [Example 13.31]
21,3400,COc1ccc(C#Cc2ccc(CC(C)NC(=O)C3CC3)cc2)cc1OC (stereo not shown) [Example 2.71]
22,180,CC(=O)NC(C)CCc1ccc(C#Cc2ccc(OC(C)C)cc2)cc1 (stereo not shown) [Example 14.9]

row,IC50 [nM],SMILES
1,120,"CCOc1ccc(C#Cc2ccc(CC(C)NC(C)=O)cc2)cc1 (stereo not shown) [Example 1.28, N-{2-[4-(4-ethoxy-phenylethynyl)-phenyl]-1-methyl-ethyl}-acetamide]"
2,1300,CC(=O)NC(C)Cc1ccc(C#Cc2ccnc(Oc3ccccc3)n2)cc1 (stereo not shown) [Example 12.3]
3,320,CC(=O)NC(C)Cc1ccc(C#Cc2cnc(OCCc3ccccc3)nc2)cc1 (stereo not shown) [Example 12.32]
4,200,CC(Cc1ccc(C#Cc2cnc(NCc3ccccc3)nc2)cc1)NC(=O)C1CC1 (stereo not shown) [Example 13.54]
5,2100,CC(=O)NC(C)Cc1ccc(C#Cc2cccc(C(=O)N3CCCCC3)c2)cc1 (stereo not shown) [Example 8.32]
6,400,CCOc1ccc(C#Cc2ccc(C(C)NC(C)=O)cc2)cc1 (stereo not shown) [Example 14.51]
7,90,CCCCOc1ccc(C#Cc2ccc(CC(C)NC(C)=O)cc2)cc1 (stereo not shown) [Example 9.3]
8,400,CCc1ccc(C#Cc2ccc(CC(C)NC(C)=O)cc2)cc1 (stereo not shown) [Example 1.21]
9,400,CC(=O)NC(C)Cc1ccc(C#Cc2ccc(OCCc3ccncc3)cc2)cc1 (stereo not shown) [Example 9.23]
10,260,CC(=O)NC(C)Cc1ccc(C#Cc2ccc(OCc3ccco3)cc2)cc1 (stereo not shown) [Example 9.16]
11,13900,COC1CN(c2nccc(C#Cc3ccc(CC(C)NC(C)=O)cc3)n2)C1 (stereo not shown) [Example 11.34]
12,170,CC(=O)NC(C)Cc1ccc(C#Cc2cnc(NCCC(F)(F)F)nc2)cc1 (stereo not shown) [Example 13.75]
13,2200,CC(=O)NC(C)Cc1ccc(C#Cc2ccc(C(=O)N3CCC3)cc2)cc1 (stereo not shown) [Example 8.15]
14,170,CC(=O)N[C@@H](C)Cc1ccc(C#Cc2ccc(Oc3ccccc3)nc2)cc1 [Example 24.3]
15,910,CC(Cc1ccc(C#Cc2cnc(N3CCCCC3)nc2)cc1)NC(=O)C1CC1 (stereo not shown) [Example 13.45]
16,990,CCOc1ccc(C#Cc2ccc(CC(C)NC(=O)c3oc(C)nc3C)cc2)cc1 (stereo not shown) [Example 4.57]
17,740,CC(Cc1ccc(C#Cc2ccc3c(c2)CCO3)cc1)NC(=O)C1CC1 (stereo not shown) [Example 2.62]
18,740,CC(=O)NC(C)Cc1ccc(C#Cc2ccc(C3CC3)cn2)cc1 (stereo not shown) [Example 2.80]
19,1600,CC(=O)NC(C)Cc1ccc(C#Cc2cccc(OCc3cn(C)cn3)c2)cc1 (stereo not shown) [Example 9.14]
20,270,CC(=O)NC(C)Cc1ccc(C#Cc2ccc(C(C)(C)C)cc2C#N)cc1 (stereo not shown) [Example 2.11]
21,1800,CCOc1ccc(C#Cc2ccc(CC(C)N3CC(C)(C)C3=O)cc2)cc1 (stereo not shown) [19.1]
22,3700,CC(=O)NC(C)Cc1ccc(C#Cc2ccc(C(=O)N(C)Cc3ccccc3)cc2)cc1 (stereo not shown) [Example 8.9]

row,IC50 [nM],SMILES
1,2800,CCOc1ccc(C#Cc2ccc(CC(C)NC(=O)c3ccccc3)cc2)cc1 (stereo not shown) [Example 4.19]
2,430,CCOc1ccc(C#Cc2ccc(CCNC(C)=O)cc2)cc1 [Example 16.3]
3,710,C=CC(=O)NC(C)c1ccc(C#Cc2ccc(OCC)cc2)cc1 (stereo not shown) [Example 4.39]
4,1100,CC(=O)NC(C)Cc1ccc(C#Cc2ccc(Br)cc2F)cc1 (stereo not shown) [Example 1.24]
5,3400,COC(=O)NC(C)Cc1ccc(C#Cc2cnc(NCc3ccncc3)nc2)cc1 (stereo not shown) [Example 13.28]
6,4700,CCOc1ccc(C#Cc2ccc(CC(C)NC(=O)c3cnc[nH]3)cc2)cc1 (stereo not shown) [Example 4.66]
7,150,CCOc1ccc(C#Cc2ccc(CC(CC)NC(C)=O)cc2)cc1 (stereo not shown) [Example 27.3]
8,7300,CC(=O)N[C@@H](C)c1ccc(C#Cc2cnc(NCc3ccccc3)nc2)cc1 [Example 13.92]
9,1500,CC(=O)NC(C)Cc1ccc(C#Cc2cnc(OCc3cncs3)nc2)cc1 (stereo not shown) [Example 12.36]
10,730,CC(=O)NC(C)Cc1ccc(C#Cc2ccc3c(c2)CCO3)cc1 (stereo not shown) [Example 2.8]
11,1500,CCOc1cc(C#Cc2ccc(C(C)NC(C)=O)cc2)ncn1 (stereo not shown) [Example 14.4]
12,16900,CC(=O)NC(C)Cc1ccc(C#Cc2cccc(C(=O)N3CCOCC3)c2)cc1 (stereo not shown) [Example 1.32]
13,660,CC(CNC(=O)CC#N)c1ccc(C#Cc2cnc(OC3CCC3)nc2)cc1 (stereo not shown) [Example 4.76]
14,960,COc1ccc(C#Cc2ccc(CC(C)NC(=O)C3CC3)cc2)cc1 (stereo not shown) [Example 2.56]
15,180,CCCOc1ccc(C#Cc2ccc(CC(C)NC(C)=O)cc2)nc1 (stereo not shown) [Example 23.8]
16,730,CC(=O)NCCc1ccc(C#Cc2ccc(OC(C)C)cc2)cc1 [Example 14.35]
17,800,CC(=O)NC(C)Cc1ccc(C#Cc2cnc(N3Cc4ccccc4C3)nc2)cc1 (stereo not shown) [Example 13.64]
18,680,CCOc1ccc(C#Cc2ccc(CC(C)NC(=O)C3CCNC3=O)cc2)cc1 (stereo not shown) [Example 4.58]
19,450,CCCOc1cc(C#Cc2ccc(C(C)NC(C)=O)cc2)ccn1 (stereo not shown) [Example 14.3]
20,120,CCCOc1cc(C#Cc2ccc(CCC(C)NC(C)=O)cc2)ccn1 (stereo not shown) [Example 14.16]
21,400,CC(=O)NC(C)Cc1ccc(C#Cc2ccnc(N3CCCC(c4ccccc4)C3)n2)cc1 (stereo not shown) [Example 11.27]
22,80,CCCOc1ccc(C#Cc2ccc(CC(C)NC(C)=O)cc2)c(Cl)c1 (stereo not shown) [Example 2.93]

row,IC50 [nM],SMILES
1,230,"CCOc1cc(C#Cc2ccc(C[C@H](C)NC(C)=O)cc2)ccn1 (stereo in doubt) [Example 23.1, N-{2-[4-(2-Ethoxy-pyridin-4-ylethynyl)-phenyl]-1-methyl-ethyl}-acetamide]"
2,1000,CC(=O)NC(C)Cc1ccc(C#Cc2cnc(NCCc3ccccc3)nc2)cc1 (stereo not shown) [Example 13.87]
3,2700,CC(=O)NC(C)Cc1ccc(C#Cc2ccnc(Nc3ccccc3)n2)cc1 (stereo not shown) [Example 11.41]
4,24400,C[C@H](NC(=O)C1CC1)c1ccc(I)cc1 [28.1]
5,100,CC(=O)NC(C)Cc1ccc(C#Cc2ccc(OC(C)(C)C)cc2)cc1 (stereo not shown) [Example 2.75]
6,7200,CCOc1ccc(C#Cc2ccc(CCNC(C)=O)nc2)cc1 [26.1]
7,350,CC(=O)NC(C)Cc1ccc(C#Cc2cnc(OC(C)CC(F)(F)F)nc2)cc1 (stereo not shown) [Example 12.42]
8,2400,CC(=O)NC(C)Cc1ccc(C#Cc2ccc(C(=O)O)cc2)cc1 (stereo not shown) [Example 1.5]
9,3900,CC(=O)NC(C)Cc1ccc(C#Cc2ccc(C(=O)N(C)C)cc2)cc1 (stereo not shown) [Example 8.43]
10,360,COC(=O)NC(C)Cc1ccc(C#Cc2cnc(N3CC4CCCC4C3)nc2)cc1 (stereo not shown) [Example 13.30]
11,1200,"COCCN(C)c1nccc(C#Cc2ccc(CC(C)NC(C)=O)cc2)n1 (stereo not shown) [Example 11.1, N-(1-(4-((2-((2-Methoxyethyl)(methyl)amino)pyrimidin-4-yl)ethynyl)phenyl)propan-2-yl)acetamide]"
12,140,CCCOc1ccc(C#Cc2ccc([C@H](C)NC(C)=O)cc2)cc1 [Example 14.23]
13,1200,CC(=O)NC(C)Cc1ccc(C#Cc2cnc(NCc3ccncc3)nc2)cc1 (stereo not shown) [Example 13.82]
14,330,CCOc1ccc(C#Cc2ccc(CC(C)NS(C)(=O)=O)cc2)cc1 (stereo not shown) [Example 5.4]
15,640,CC(=O)NC(C)Cc1ccc(C#Cc2ccc(OCc3cc(C)on3)cc2)cc1 (stereo not shown) [Example 9.27]
16,6800,CC(=O)NC(C)Cc1ccc(C#Cc2cnc(NCc3ncccn3)nc2)cc1 (stereo not shown) [Example 13.70]
17,680,CC(=O)NC(C)Cc1ccc(C#Cc2ccnc(N3CCCC(F)C3)n2)cc1 (stereo not shown) [Example 11.16]
18,1900,COCC(C)Nc1ncc(C#Cc2ccc(CC(C)NC(C)=O)cc2)cn1 (stereo not shown) [Example 13.14]
19,2600,CC(Cc1ccc(C#Cc2cnc(NCc3ccncc3)nc2)cc1)NC(=O)C1CC1 (stereo not shown) [Example 13.37]
